Columns and labels:
D30N HIV protease = target: T1, D30N HIV protease (Human immunodeficiency virus type 1 group M subtype B, UniProt P12497, D518N); experiment: cell-based; set-up: species or system HIV-1
T1 construct: used to replace the wild-type HIV protease domain in the two-cistron expression construct; Met-Gly (my reading of primer TF-F) + native transframe region (56 aa directly upstream of the protease in Gag-Pol) (N); Lys-Glu-Glu (my translation of primer PR-R: Shine-Dalgarno in frame before the stop codon) (C); expressed in transfected cells; host or cells: E. coli bearing plasmid pTF-PR^D30N
Protocol: (§1) Cell-Based β-galactosidase Activity Assay. Cell-based β-galactosidase activity assays were performed basically as described in Example 4. E. coli cells bearing each of the expression plasmids were grown as described, except that after incubation at 37° C. for 2 h to an OD630 of 0.6, the cells were transferred in triplicate sets to the wells of 96-well microplates. The cells were subjected to simultaneous induction for recombinant protein expression as well as drug treatment with HIV protease inhibitors at the indicated concentrations in 2% DMSO. For the screening of the compound library generated by the amide-forming reaction (see Example 5), DMF was used instead of DMSO. […] After the OD630 of the cells was determined by using an Ultramark microplate imaging system (Bio-Rad, Hercules, Calif.), ONPG was added at a final concentration of 200 μM to start the enzymatic reactions at 37° C. Changes in the OD415, indicating the production of ortho-nitrophenol, were continuously monitored with the Ultramark microplate imaging system. […] The β-galactosidase activity was determined as the number of micromoles of ortho-nitrophenol produced per minute at 37° C. […]

I84V HIV protease = target: T2, I84V HIV protease (Human immunodeficiency virus type 1 group M subtype B, UniProt P12497, I572V); experiment: E. coli-based assay system: β-galactosidase activity, cells co-expressing TF-PR^I84V and β-Gal^PR; format: cell-based, HIV-1
T2 construct: used to replace the wild-type HIV protease domain in the two-cistron system to construct the plasmid pTF-PR^I84V; Met-Gly (my reading of primer TF-F) + native transframe region (56 aa directly upstream of the protease in Gag-Pol) (N); Lys-Glu-Glu (my translation of primer PR-R: Shine-Dalgarno in frame before the stop codon) (C); expressed in transfected cells; host or cells: E. coli bearing plasmid pTF-PR^I84V
Protocol: as §1

wild-type HIV protease = wild-type HIV protease (Human immunodeficiency virus type 1 group M subtype B, UniProt P12497); experiment: cell-based
Protocol: (§2) Stock solutions of the FDA-approved HIV protease inhibitors were prepared by solubilizing the drugs in 100% dimethyl sulfoxide (DMSO) at 100 mM. A single colony of the cells bearing the respective plasmid, namely pTF-PR^WT or pTF-PR^mutant, was inoculated into 2 ml of Luria-Bertani (LB) medium with 100 μg of ampicillin/ml and grown overnight at 37° C. The culture was diluted 100-fold with fresh Luria-Bertani medium containing 100 μg of ampicillin/ml and incubated at 37° C. for 2 h until the optical density at 630 nm (OD630) of the cells reached 0.6. The cells were then induced for protein expression with 0.2% arabinose and simultaneously treated with either HIV protease inhibitors dissolved in 2% DMSO at the indicated concentrations or 2% DMSO alone as the negative control. After incubation for an additional 3 h at 30° C., the cells were collected for Western blot analysis of proteins.
Cell-Based β-galactosidase Activity Assay. Cell-based β-galactosidase activity assays were performed basically as described in Example 4. E. coli cells bearing each of the expression plasmids were grown as described, except that after incubation at 37° C. for 2 h to an OD630 of 0.6, the cells were transferred in triplicate sets to the wells of 96-well microplates. The cells were subjected to simultaneous induction for recombinant protein expression as well as drug treatment with HIV protease inhibitors at the indicated concentrations in 2% DMSO. For the screening of the compound library generated by the amide-forming reaction (see Example 5), DMF was used instead of DMSO. After incubation for an additional 3 h at 30° C., the cells were made permeable for the entry of the β-galactosidase substrate, (ortho-nitrophenyl-β-D-galactopyranoside (ONPG)), by diluting the cells in assay buffer (10 mM NaP, pH 7.3, 10 mM NaCl, 1 mM MgSO4, 5 mM β-mercaptoethanol) that contained 50 μg of polymyxin B sulfate/ml and 2%Triton X-100 (Schupp et al., BioTechniques 19:18-20 (1995)). The cells were then incubated for 5 min at room temperature in 96-well microplates. After the OD630 of the cells was determined by using an Ultramark microplate imaging system (Bio-Rad, Hercules, Calif.), ONPG was added at a final concentration of 200 μM to start the enzymatic reactions at 37° C. Changes in the OD415, indicating the production of ortho-nitrophenol, were continuously monitored with the Ultramark microplate imaging system. The linear portion of the progression curve was used to determine the initial velocity with MATLAB (The MathWorks Inc., Natick, Mass.). The difference in OD415 (ΔA) was converted to the increase in product concentration (ΔC) by using the equation ΔA=ε(ΔC)(L), where L is the light path of 0.4 cm and the extinction coefficient (ε) of ortho-nitrophenol was 3,500 M^−1 cm^−1 under the assay conditions. The β-galactosidase activity was determined as the number of micromoles of ortho-nitrophenol produced per minute at 37° C. The β-galactosidase activity was then normalized against the amount of total cellular proteins, which was estimated by assuming that an OD630 unit corresponds to 1.4×10^9 cells and that every 10^9 cells yield approximately 150 μg of proteins (Pardee et al., J. Mol. Biol. 1:165-68 (1959)).
ββ-galactosidase activity assays were performed as described in Example 8. After drug treatment for 3 h, the cells were processed for detection of β-galactosidase activity of whole cells in 96-well microplates as described. Cells coexpressing TF-PR^WT and β-GalPR were treated with HIV protease inhibitors at the concentrations between 0 and 400 μM. β-galactosidase activities (micromoles per minute per milligram of total protein) in the treated E. coli cells were determined.
The β-galactosidase activity detected in E. coli coexpressing TF-PR^WT and β-Gal^PR in the absence of HIV protease inhibitors was referred to as 0% inhibition.

[1] = target: T3, HIV protease precursor TF-PR^WT (Human immunodeficiency virus type 1 group M subtype B, UniProt P12497, L434F); experiment: cell-based; set-up: species or system HIV-1
T3 construct: Met-Gly (my reading of primer TF-F) + native transframe region (TFP 8 aa + p6pol 48 aa = 56 aa directly upstream of the protease in Gag-Pol); removed by autoprocessing (N, cleaved yes); expressed in transfected cells; host or cells: E. coli DH5α bearing plasmid pTF-PR^WT (pBAD, arabinose-induced)
Protocol: as §2

D30N HIV strain = conditions: concentration inhibiting 90% of mammalian cell death induced by HIV infection; Patick et al.; read-out: EC90 (μM) from standard antiviral assay with: D30N HIV strain; cited from earlier work
Wild-type HIV = conditions: concentration inhibiting 90% of mammalian cell death induced by HIV infection; Patick et al.; read-out: EC90 (μM) from standard antiviral assay with: Wild-type HIV; cited from earlier work

Molecule	IC50 (D30N HIV protease)	IC50 (wild-type HIV protease)	IC50 [1]	EC90 (D30N HIV strain)	EC90 (Wild-type HIV)	further results
CC(C)CN(C[C@@H](O)[C@H](Cc1ccccc1)NC(=O)O[C@H]1CCOC1)S(=O)(=O)c1ccc(N)cc1 [APV, amprenavir]	35900 ± 17700 nM	53400 ± 17400 nM	1600 to 8000 nM			IC50 (I84V HIV protease): 280000 ± 39000 nM
CC(C)(C)NC(=O)[C@@H]1CN(Cc2cccnc2)CCN1C[C@@H](O)C[C@@H](Cc1ccccc1)C(=O)N[C@H]1c2ccccc2C[C@H]1O [IDV, indinavir]				0.01 µM	0.06 µM	
Cc1c(O)cccc1C(=O)N[C@@H](CSc1ccccc1)[C@H](O)CN1C[C@H]2CCCC[C@H]2C[C@H]1C(=O)NC(C)(C)C [NFV, nelfinavir]	> 400000 nM	48400 ± 4800 nM	1600 to 8000 nM	0.18 µM	0.03 µM	inhibition at 400 µM (wild-type HIV protease; read-out: % inhibition against the wild-type HIV protease): 75%
CC(C)c1nc(CN(C)C(=O)N[C@H](C(=O)N[C@@H](Cc2ccccc2)C[C@H](O)[C@H](Cc2ccccc2)NC(=O)OCc2cncs2)C(C)C)cs1 [RTV, ritonavir]				0.01 µM	0.05 µM	
CC(C)(C)NC(=O)[C@@H]1C[C@@H]2CCCC[C@@H]2CN1C[C@@H](O)[C@H](Cc1ccccc1)NC(=O)[C@H](CC(N)=O)NC(=O)c1ccc2ccccc2n1 [SQV, saquinavir]				0.01 µM	0.03 µM	
pepstatin A						inhibition of β-galactosidase activity (so in the source) (wild-type HIV protease; E. coli cells coexpressing TF-PR^WT and β-Gal^PR): did not inhibit; cell permeability (wild-type HIV protease; E. coli cells, inferred from lack of inhibition): low cell permeability; inhibitory effects in the assay procedures described herein (wild-type HIV protease; up to 5 mM): failed to exert any inhibitory effects

— US20050244819A1, “Assay system for screening protease inhibitors” (priority 2004, published 2005)
